From patent US20250152585A1, “PHARMACEUTICAL COMPOUND” (Duke Street Bio Limited, priority 2022, published 2025)
Like-named read-outs stand apart in the source and are kept apart here.

Tests used:
[1] = biological target: T1, N-terminally FLAG-tagged PARP2 (amino acids 1-583) (Homo sapiens, UniProt Q9UGN5); assay: PARP2 probe displacement HTRF assay; format: binding; details: binned Kd
T1 construct: N-terminally FLAG-tagged PARP2 (amino acids 1-583)
Procedure: Data analysis was performed identical as for PARP1.

[2] = biological target: T2, full length N-terminally FLAG-tagged PARP1 (Homo sapiens, UniProt P09874); assay: PARP1 probe displacement HTRF assay; details: for Selectivity: PARP1 over PARP2, ratio Kd (PARP2)/Kd (PARP1); for Kd: binned Kd
T2 sequence (P09874 whole entry): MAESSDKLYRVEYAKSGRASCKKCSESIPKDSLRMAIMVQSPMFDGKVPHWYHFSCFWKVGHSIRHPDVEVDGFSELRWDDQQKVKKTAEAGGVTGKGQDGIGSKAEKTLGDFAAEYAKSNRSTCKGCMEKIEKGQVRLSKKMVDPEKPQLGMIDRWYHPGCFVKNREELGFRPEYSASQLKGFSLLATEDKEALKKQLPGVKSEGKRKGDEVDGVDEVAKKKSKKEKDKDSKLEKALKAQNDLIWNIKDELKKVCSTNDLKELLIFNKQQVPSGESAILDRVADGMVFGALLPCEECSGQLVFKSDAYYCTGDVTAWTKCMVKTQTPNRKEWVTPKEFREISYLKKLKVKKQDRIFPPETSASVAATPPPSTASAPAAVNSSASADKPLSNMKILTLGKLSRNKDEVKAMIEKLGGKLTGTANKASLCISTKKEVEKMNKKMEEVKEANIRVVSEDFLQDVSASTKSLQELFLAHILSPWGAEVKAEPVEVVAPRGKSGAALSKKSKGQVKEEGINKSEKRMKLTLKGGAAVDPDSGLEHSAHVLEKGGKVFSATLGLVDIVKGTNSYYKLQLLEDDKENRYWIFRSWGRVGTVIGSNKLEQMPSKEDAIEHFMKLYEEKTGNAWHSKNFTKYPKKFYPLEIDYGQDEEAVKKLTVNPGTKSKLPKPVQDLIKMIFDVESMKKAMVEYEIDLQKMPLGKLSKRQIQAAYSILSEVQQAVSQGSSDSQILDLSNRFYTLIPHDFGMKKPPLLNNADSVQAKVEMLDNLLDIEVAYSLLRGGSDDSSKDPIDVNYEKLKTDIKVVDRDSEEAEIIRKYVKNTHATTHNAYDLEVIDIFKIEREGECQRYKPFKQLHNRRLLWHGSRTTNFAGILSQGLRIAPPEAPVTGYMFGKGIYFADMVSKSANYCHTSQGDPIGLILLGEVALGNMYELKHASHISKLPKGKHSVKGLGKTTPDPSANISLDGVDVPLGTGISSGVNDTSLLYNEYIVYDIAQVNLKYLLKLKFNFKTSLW

[3] = biological target: T2, full length N-terminally FLAG-tagged PARP1; assay: PARP1 biochemical DELFIA assay (auto-PARylation); parameters: recombinant full length human N-terminally FLAG-tagged PARP1
[4] = read-out: PARP1 HTRF, probe displacement HTRF
[5] = binned IC50, biochemical auto-PARylation assay
[6] = PARP1 HTRF, PARP1 probe displacement HTRF
[7] = binned IC50, PARP1 biochemical DELFIA assay
[8] = read-out: PARP1 HTRF, PARP1 probe displacement HTRF

T1 sequence (Q9UGN5 whole entry, the tested form may be a part): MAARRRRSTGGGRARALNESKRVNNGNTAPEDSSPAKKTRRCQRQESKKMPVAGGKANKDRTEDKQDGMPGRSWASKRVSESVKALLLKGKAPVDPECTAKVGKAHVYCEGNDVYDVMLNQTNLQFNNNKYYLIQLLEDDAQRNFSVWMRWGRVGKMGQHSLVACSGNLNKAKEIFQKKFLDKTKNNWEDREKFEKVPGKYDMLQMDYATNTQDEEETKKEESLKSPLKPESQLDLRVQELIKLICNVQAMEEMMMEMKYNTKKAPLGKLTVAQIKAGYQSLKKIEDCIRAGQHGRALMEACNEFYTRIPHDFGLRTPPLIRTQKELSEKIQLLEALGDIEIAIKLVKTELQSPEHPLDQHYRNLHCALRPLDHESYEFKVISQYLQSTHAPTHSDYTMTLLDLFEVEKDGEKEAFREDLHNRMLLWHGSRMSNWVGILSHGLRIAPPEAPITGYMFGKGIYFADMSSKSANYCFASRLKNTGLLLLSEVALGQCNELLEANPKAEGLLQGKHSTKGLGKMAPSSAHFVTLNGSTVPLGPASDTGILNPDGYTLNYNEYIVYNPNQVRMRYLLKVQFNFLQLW

Structure (SMILES) | Kd ([1]; probe displacement HTRF) [µM] | Selectivity ([2]; probe displacement HTRF) | Kd [2, 4] [µM] | IC50 [3, 5] [µM] | Kd ([1]; PARP2 probe displacement HTRF) [µM] | Kd [2, 6] [µM] | IC50 [3, 7] [µM] | Kd [2, 8] [µM] | Kd ([2]; PARP1 HTRF, probe displacement HTRF) [µM]
N#Cc1ccc(N2CCC(N3CCC(c4cc5ccc(F)cc5c(=O)[nH]4)C3)CC2)c(Cl)c1 (single isomer, unassigned) [Compound 386a] | 0.1 to 1 | +++ (+++ indicate a value of at least 100) | < 0.01 | < 0.01 | – | – | – | – | –
O=C(NC1CC1)c1ccc(N2CCC(N3CCC(c4cc5ncc(F)cc5c(=O)[nH]4)C3)CC2)cn1 (single isomer, unassigned) [Compound 372b] | 0.01 to 0.1 | +++ (+++ indicate a value of at least 100) | < 0.01 | < 0.01 | – | – | – | – | –
O=c1[nH]c(C2CCN(C3CCN(c4ccc(OC(F)F)nc4)CC3)C2)cc2ccc(F)cc12 (single isomer, unassigned) [Compound 374a] | 0.1 to 1 | + (+ indicates a value of 10 to less than 50) | 0.01 to 0.1 | 0.01 to 0.1 | – | – | – | – | –
CNC(=O)c1ccc(N2CCC(N3CC(c4nc5ccccc5c(=O)[nH]4)C3)CC2)cn1 [Compound 27] | – | + (+ indicates a value of 10 to less than 50) | – | – | 1 to 10 | 0.01 to 0.1 | 0.01 to 0.1 | – | –
CNC(=O)c1cc(Cl)c(N2CCC(N3CCC(c4cc5ccc(F)cc5c(=O)[nH]4)C3)CC2)cn1 (single isomer, unassigned) [Compound 236b] | 0.01 to 0.1 | + (+ indicates a value of 10 to less than 50) | < 0.01 | < 0.01 | – | – | – | – | –
CNC(=O)c1ccc(N2CCC(N3CCC(c4cc5cc(OC)ccc5c(=O)[nH]4)C3)CC2)cn1 (racemic) [Compound 334rac] | 1 to 10 | ++ (++ indicates a value of 50 to less than 100) | 0.01 to 0.1 | < 0.01 | – | – | – | – | –
CC(=O)NC(=O)c1ccc(N2CCC(N3CCC(c4cc5ccccc5c(=O)[nH]4)C3)CC2)cn1 (single isomer, unassigned) [Compound 333a] | 0.1 to 1 | +++ (+++ indicate a value of at least 100) | < 0.01 | < 0.01 | – | – | – | – | –
CNC(=O)c1ccc(N2CCC(N3CCC(c4cnc(C(F)(F)F)c(=O)[nH]4)C3)CC2)cn1 (single isomer, unassigned) [Compound 279b] | > 10 | − (− indicates a value of less than 10) | 1 to 10 | 1 to 10 | – | – | – | – | –
N#Cc1ccc(N2CCC(N3CCC(c4nc5ccccc5c(=O)[nH]4)C3)CC2)cn1 (single isomer, unassigned) [Compound 69b] | – | − (− indicates a value of less than 10) | – | – | 0.1 to 1 | – | 0.01 to 0.1 | 0.01 to 0.1 | –
CNC(=O)c1ccc(N2CCC(N3CCCC(c4ccc(OC)c(=O)[nH]4)C3)CC2)cn1 (single isomer, unassigned) [Compound 147b] | – | − (− indicates a value of less than 10) | – | – | > 10 | – | 1 to 10 | 1 to 10 | –
O=c1[nH]c(C2CCN(C3CCN(c4nccs4)CC3)C2)cc2ccccc12 (racemic) [Compound 254rac] | 1 to 10 | + (+ indicates a value of 10 to less than 50) | 0.1 to 1 | 0.01 to 0.1 | – | – | – | – | –
CNC(=O)c1ccc(N2CCC(N3CCC(c4cc5c(c(=O)[nH]4)CCCN5)C3)CC2)cn1 (racemic) [Compound 233rac] | 0.1 to 1 | +++ (+++ indicate a value of at least 100) | < 0.01 | < 0.01 | – | – | – | – | –
CNC(=O)c1ccc(N2CCC(N3CCC(c4nc5c(F)cc(F)cc5c(=O)[nH]4)C3)CC2)cn1 (single isomer, unassigned) [Compound 181a] | – | + (+ indicates a value of 10 to less than 50) | – | – | 0.1 to 1 | – | 0.01 to 0.1 | 0.01 to 0.1 | –
CNC(=O)c1ccc(N2CCC(N3CCC(c4cc5c(F)cccc5c(=O)[nH]4)C3)CC2)cn1 (single isomer, unassigned) [Compound 172b] | – | +++ (+++ indicate a value of at least 100) | – | – | 0.01 to 0.1 | – | < 0.01 | < 0.01 | –
CNC(=O)c1ccc(N2CCC(N3CCC(c4cc5ccc(F)cc5c(=O)[nH]4)C3)CC2)cn1 (single isomer, unassigned) [Compound 154a, 5-(4-(3-(7-fluoro-1-oxo-1,2-dihydroisoquinolin-3-yl)pyrrolidin-1-yl)piperidin-1-yl)-N-methylpicolinamide] | – | +++ (+++ indicate a value of at least 100) | – | – | 0.1 to 1 | < 0.01 | < 0.01 | – | –
CNC(=O)c1ccc(N2CCC(N3CCC(c4cc5c(c(C(F)(F)F)nn5C)c(=O)[nH]4)C3)CC2)c(F)n1 (single isomer, unassigned) [Compound 407b] | < 0.01 | + (+ indicates a value of 10 to less than 50) | < 0.01 | < 0.01 | – | – | – | – | –
CNC(=O)c1ccc(N2CCC(N3CCCC(C)(c4nc5ccccc5c(=O)[nH]4)C3)CC2)cn1 (single isomer, unassigned) [Compound 66a] | – | − (− indicates a value of less than 10) | – | – | > 10 | – | 1 to 10 | 1 to 10 | –
CNC(=O)c1ccc(N2CCC(N3CC4(c5nc6c(c(=O)[nH]5)COCC6)CC3C4)CC2)cn1 [Compound 373] | 1 to 10 | +++ (+++ indicate a value of at least 100) | – | < 0.01 | – | – | – | – | < 0.01
CNC(=O)c1ccc(N2CCC(CN3CC4(c5nc6ccccc6c(=O)[nH]5)CC3C4)CC2)cn1 [Compound 193] | – | +++ (+++ indicate a value of at least 100) | – | – | 1 to 10 | 0.01 to 0.1 | 0.01 to 0.1 | – | –
CNC(=O)c1ccc(N2CCC(N3CCCC(c4nc5ccccc5c(=O)[nH]4)C3)CC2)c(Cl)n1 (single isomer, unassigned) [Compound 94a] | – | + (+ indicates a value of 10 to less than 50) | – | – | 1 to 10 | – | 0.01 to 0.1 | 0.01 to 0.1 | –
N#Cc1ccc(N2CCC(N3CCC(c4cc5cccc(F)c5c(=O)[nH]4)C3)CC2)nc1 (single isomer, unassigned) [Compound 340a] | 0.1 to 1 | +++ (+++ indicate a value of at least 100) | < 0.01 | < 0.01 | – | – | – | – | –
CNC(=O)c1ccc(N2CCC(N3CCC(c4cc5cccc(F)c5c(=O)[nH]4)C3)CC2)nn1 (single isomer, unassigned) [Compound 209b] | – | +++ (+++ indicate a value of at least 100) | – | – | 1 to 10 | – | 0.01 to 0.1 | 0.01 to 0.1 | –
CNC(=O)c1ccc(N2CCC(N3CCC(c4cc5ccc(F)cc5c(=O)[nH]4)C3)CC2)cn1 (racemic) [Compound 154rac, 5-(4-(3-(7-fluoro-1-oxo-1,2-dihydroisoquinolin-3-yl)pyrrolidin-1-yl)piperidin-1-yl)-N-methylpicolinamide] | – | + (+ indicates a value of 10 to less than 50) | – | – | 0.01 to 0.1 | < 0.01 | < 0.01 | – | –
CNC(=O)c1ccc(N2CCC(N3CCC(c4ccc(Cl)c(=O)[nH]4)C3)CC2)cn1 (single isomer, unassigned) [Compound 201b] | – | +++ (+++ indicate a value of at least 100) | – | – | 1 to 10 | – | < 0.01 | < 0.01 | –
CCc1ccc(C2CC(=O)N(C3CCN(c4ccc(C(=O)NC)nc4)CC3)C2)[nH]c1=O (racemic) [Compound 406rac] | > 10 | +++ (+++ indicate a value of at least 100) | < 0.01 | < 0.01 | – | – | – | – | –
CNC(=O)c1ccc(N2CCC(N3CCC(c4cc5ncccc5c(=O)[nH]4)C3)CC2)cn1 (single isomer, unassigned) [Compound 218a] | – | +++ (+++ indicate a value of at least 100) | – | – | > 10 | – | 0.01 to 0.1 | 0.01 to 0.1 | –
N#Cc1ccc(N2CCC(N3CCC(c4cc5ccc(F)cc5c(=O)[nH]4)C3)CC2)c(Cl)c1 (single isomer, unassigned) [Compound 386b] | 1 to 10 | +++ (+++ indicate a value of at least 100) | < 0.01 | < 0.01 | – | – | – | – | –
